These results are taken from US9540391B2, “Isomannide derivatives as inhibitors of soluble epoxide hydrolase” (SANOFI, priority 2013, dated 2017).

The assay concerns the target T1, recombinant sEH (Homo sapiens, UniProt P34913).
T1 construct: made in house; host or cells: Sf9 insect cells
T1 sequence (P34913 1-555): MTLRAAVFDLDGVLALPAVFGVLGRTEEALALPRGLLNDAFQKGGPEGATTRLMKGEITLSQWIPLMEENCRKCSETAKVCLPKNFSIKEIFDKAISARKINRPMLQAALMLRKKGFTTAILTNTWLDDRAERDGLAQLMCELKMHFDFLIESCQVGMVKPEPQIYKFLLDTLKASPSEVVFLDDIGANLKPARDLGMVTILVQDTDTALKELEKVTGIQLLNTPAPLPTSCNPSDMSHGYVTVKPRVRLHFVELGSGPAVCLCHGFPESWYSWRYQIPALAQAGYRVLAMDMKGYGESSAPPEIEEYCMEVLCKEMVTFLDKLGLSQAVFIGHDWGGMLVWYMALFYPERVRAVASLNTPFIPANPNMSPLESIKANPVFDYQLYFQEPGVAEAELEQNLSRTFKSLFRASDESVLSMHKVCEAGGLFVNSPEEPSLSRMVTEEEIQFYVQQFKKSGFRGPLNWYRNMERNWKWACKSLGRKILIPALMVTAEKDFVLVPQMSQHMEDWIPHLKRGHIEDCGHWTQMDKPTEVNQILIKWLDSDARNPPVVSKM
The experiment in a line: biochemical screening assay for inhibition of soluble epoxide hydrolase (fluorometric, Phome substrate). An outline of the steps: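 Human sEH from Sf9 cells (2 nM final) was pre-incubated 15 min at 30 °C with compound (0.0001–10 μM), then reacted 60 min at 30 °C with 5 μM Phome in 25 mM Hepes/0.01% albumin. Fluorescence of released 6-methoxy-2-naphthaldehyde was read before substrate and at end; IC50 from % inhibition.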

For `COc1cc(NC(=O)NC2COC3C(CCc4ccsc4)COC23)cc(OC)c1` [Example 361, 1-(3,5-Dimethoxy-phenyl)-3-[(3S,3aR,-6R)-6-((S)-2-thiophen-3-yl-ethyl)-hexahydro-furo[3,2-b]furan-3-yl]-urea], the IC50 is 39 nM. As for `Cc1cc(C)cc(NC(=O)NC2COC3C(CCc4ccsc4)COC23)c1` [Example 362, 1-(3,5-Dimethyl-phenyl)-3-[(3S,3aR,6R)-6-((S)-2-thiophen-3-yl-ethyl)-hexahydro-furo[3,2-b]furan-3-yl]-urea], the figure is 9 nM.

As to `O=C(Nc1ccccc1)NC1COC2C(CCc3ccsc3)COC12` [Example 363, 1-Phenyl-3-[(3S,3aR,6R)-6-((S)-2-thiophen-3-yl-ethyl)-hexahydro-furo[3,2-b]furan-3-yl]-urea], the half-inhibitory concentration (IC50) worked out at 25 nM. For `O=C(NCc1ccc(F)cc1)NC1COC2C(CCc3ccsc3)COC12` [Example 364, 1-(4-Fluoro-benzyl)-3-[(3S,3aR,6R)-6-((S)-2-thiophen-3-yl-ethyl)-hexa-hydro-furo[3,2-b]furan-3-yl]-urea] the value was 29 nM. As for `Cc1cccc(CNC(=O)NC2COC3C(CCc4ccsc4)COC23)c1` [Example 365, 1-(3-Methyl-benzyl)-3-[(3S,3aR,6R)-6-((S)-2-thiophen-3-yl-ethyl)-hexa-hydro-furo[3,2-b]furan-3-yl]-urea], the figure is 145 nM. For `O=C(Nc1ccc(F)cc1)NC1COC2C(CCc3ccsc3)COC12` [Example 366, 1-(4-Fluoro-phenyl)-3-[(3S,3aR,6R)-6-((S)-2-thiophen-3-yl-ethyl)-hexa-hydro-furo[3,2-b]furan-3-yl]-urea], the IC50 was 9 nM. As for `O=C(Nc1ccc2c(c1)CCC2)N[C@H]1CO[C@@H]2[C@@H](CCc3ccsc3)CO[C@@H]21` [Example 367, 1-Indan-5-yl-3-[(3S,3aR,6S,6aR)-6-(2-thiophen-3-yl-ethyl)-hexahydro-furo[3,2-b]furan-3-yl]-urea], the figure is 12 nM; as for `O=C(Nc1cccc(C(F)(F)F)c1)N[C@H]1CO[C@@H]2[C@@H](CCc3ccccc3)CO[C@@H]21` [Example 368, 1-((3S,3aR,6S,6aR)-6-Phenethyl-hexahydro-furo[3,2-b]furan-3-yl)-3-(3-trifluoromethyl-phenyl)-urea], 68 nM; as for `O=C(Nc1ccc2c(c1)OCCO2)N[C@H]1CO[C@@H]2[C@@H](CCc3ccccc3)CO[C@@H]21` [Example 369, 1-(2,3-Dihydro-benzo[1,4]dioxin-6-yl)-3-((3S,3aR,6S,6aR)-6-phenethyl-hexahydro-furo[3,2-b]furan-3-yl)-urea], 22 nM. Regarding `O=C(NCCc1cccs1)N[C@H]1CO[C@@H]2[C@@H](CCc3ccccc3)CO[C@@H]21` [Example 370, 1-((3S,3aR,6S,6aR)-6-Phenethyl-hexahydro-furo[3,2-b]furan-3-yl)-3-(2-thiophen-2-yl-ethyl)-urea], the half-inhibitory concentration (IC50) came out at 43 nM. For `O=C(NCCc1ccccc1)N[C@H]1CO[C@@H]2[C@@H](CCc3ccccc3)CO[C@@H]21` [Example 371, 1-Phenethyl-3-((3S,3aR,6S,6aR)-6-phenethyl-hexahydro-furo[3,2-b]furan-3-yl)-urea] the value was 24 nM; for `O=C(Nc1ccc(OC(F)(F)F)cc1)N[C@H]1CO[C@@H]2[C@@H](CCc3ccccc3)CO[C@@H]21` [Example 372, 1-((3S,3aR,6S,6aR)-6-Phenethyl-hexahydro-furo[3,2-b]furan-3-yl)-3-(4-trifluoromethoxy-phenyl)-urea], 11 nM. For `O=C(NCCc1ccccc1)N[C@H]1CO[C@@H]2[C@@H](CCc3ccsc3)CO[C@@H]21` [Example 373, 1-Phenethyl-3-[(3S,3aR,6S,6aR)-6-(2-thiophen-3-yl-ethyl)-hexahydro-furo[3,2-b]furan-3-yl]-urea] the value was 39 nM; for `O=C(Nc1ccc(OC(F)(F)F)cc1)N[C@H]1CO[C@@H]2[C@@H](CCc3ccsc3)CO[C@@H]21` [Example 374, 1-[(3S,3aR,6S,6aR)-6-(2-Thiophen-3-yl-ethyl)-hexahydro-furo[3,2-b]furan-3-yl]-3-(4-trifluoromethoxy-phenyl)-urea], 235 nM; for `O=C(Nc1cccc(C(F)(F)F)c1)N[C@H]1CO[C@@H]2[C@@H](CCc3ccsc3)CO[C@@H]21` [Example 375, 1-[(3S,3aR,6S,6aR)-6-(2-Thiophen-3-yl-ethyl)-hexahydro-furo[3,2-b]furan-3-yl]-3-(3-trifluoromethyl-phenyl)-urea], 17 nM. As for `CCOC(=O)CC[C@H]1CO[C@H]2[C@@H]1OC[C@@H]2NC(=O)NC1CCCCC1` [Example 376, 3-[(3S,3aR,6S,6aR)-6-(3-Cyclohexyl-ureido)-hexahydro-furo[3,2-b]furan-3-yl]-propionic acid ethyl ester], the figure is 26 nM; as for `O=C(O)CC[C@H]1CO[C@H]2[C@@H]1OC[C@@H]2NC(=O)NC1CCCCC1` [Example 377, 3-[(3S,3aR,6S,6aR)-6-(3-cyclohexyl-ureido)-hexahydro-furo[3,2-b]furan-3-yl]-propionic acid], 2940 nM; as for `N#C[C@H]1CO[C@H]2[C@@H]1OC[C@@H]2NC(=O)Nc1ccc(OC(F)(F)F)cc1` [Example 378, 1-((3S,3aR,6S,6aR)-6-cyano-hexahydro-furo[3,2-b]furan-3-yl)-3-(4-trifluoromethoxy-phenyl)-urea], 24 nM.

As to `CCCCOc1ccc(NC(=O)NC2COC3C(C#N)COC23)cc1` (centres unmarked) [Example 380], the IC50 turned out to be 304 nM. Consider `Cc1cc(C)cc(NC(=O)NC2COC3C(C#N)COC23)c1` (centres unmarked) [Example 381], for which the half-inhibitory concentration (IC50) turned out to be 108 nM. As for `N#CC1COC2C(NC(=O)Nc3ccc(OCc4ccccc4)cc3)COC12` (centres unmarked) [Example 382], the figure is 339 nM; as for `Cc1cccc(NC(=O)NC2COC3C(C#N)COC23)c1` (centres unmarked) [Example 383], 694 nM. For `N#CC1COC2C(NC(=O)Nc3ccc(Cl)c(Cl)c3)COC12` (centres unmarked) [Example 384] the value was 61 nM.
